Tests used:
BChE from equine serum = BChE from equine serum (Equus caballus, UniProt P81908); experiment: biochemical; type: biochemical; details: for IC50 values (mean ± SD) BChE: BChE from equine serum
[1] = molecular target: AChE from Electrophorus electricus (electric eel) (Electrophorus electricus, UniProt O42275); experiment: In vitro AChE inhibition assay; type: biochemical
[2] = molecular target: GluN2B containing NMDAR (GluN1/GluN2B) in HEK-293 cells (Homo sapiens, UniProt Q05586+Q13224); experiment: Cell-based NMDAR activity assay; details: for category of NMDAR inhibitor: based on NMDAR IC50; for antagonism of NMDAR activity, in words: initial screening studies; for inhibition at 100 µM / inhibition at 50 µM: HEK293, read-out: inhibition of NMDAR activity; for number of punctate cells: 5 μM, with NMDAR agonists and Ca2+ (Fig. 2B)
HepG2 cells = experiment: MTT cytotoxicity assay on HepG2 cells; details: 24 h; for cytotoxicity on HepG2 cells, in words: 10-300 μM
[3] = system: rat primary cortical neurons; experiment: Glutamate-induced excitotoxicity, MAP2 immunostaining and DAPI staining; type: cell-based; details: DIV9 neurons, 100 µM glutamate and 10 µM glycine
[4] = system: rat primary cortical neurons; experiment: Glutamate-induced excitotoxicity, MTT assay; type: cell-based; details: DIV9 neurons, glutamate 3 h, MTT after 24 h; pre-treatment with compounds
rat liver = experiment: In vivo hepatotoxicity assessment by liver histopathology; details: IP, 15 days; for liver histopathology (H&E), in words: 201 3 mg/Kg, 208 1 mg/Kg, tacrine 5 mg/Kg
[5] = system: MSG induced cognitive impairment in rats; experiment: Morris water maze test in MSG treated rats; type: in vivo; details: rat, IP, 3 mg/Kg body weight with MSG 4 g/Kg; vs MSG alone
AChE = details: read-out: IC50 (AChEI); cited from earlier work
NMDAR = details: read-out: IC50 NMDAR, reported value; cited from earlier work

Chain of BChE from equine serum (P81908 whole entry): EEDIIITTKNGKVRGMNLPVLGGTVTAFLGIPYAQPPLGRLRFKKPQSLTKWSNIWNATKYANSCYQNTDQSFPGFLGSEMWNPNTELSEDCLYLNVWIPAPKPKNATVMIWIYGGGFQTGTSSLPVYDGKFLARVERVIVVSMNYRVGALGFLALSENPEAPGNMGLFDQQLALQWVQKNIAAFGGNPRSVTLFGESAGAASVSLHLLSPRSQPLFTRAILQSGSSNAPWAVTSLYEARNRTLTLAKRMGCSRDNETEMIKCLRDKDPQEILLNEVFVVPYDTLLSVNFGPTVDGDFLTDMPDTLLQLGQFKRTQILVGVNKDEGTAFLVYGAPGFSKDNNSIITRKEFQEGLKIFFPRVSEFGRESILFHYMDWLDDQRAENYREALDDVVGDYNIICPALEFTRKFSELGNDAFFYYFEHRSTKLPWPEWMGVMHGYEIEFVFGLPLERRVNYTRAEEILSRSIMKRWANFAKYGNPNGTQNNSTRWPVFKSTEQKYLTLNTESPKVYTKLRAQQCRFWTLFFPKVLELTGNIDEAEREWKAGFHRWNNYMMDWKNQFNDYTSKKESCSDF
Chain of GluN2B containing NMDAR (GluN1/GluN2B) in HEK-293 cells (Q13224 27-1484, species assumed, other chains not shown): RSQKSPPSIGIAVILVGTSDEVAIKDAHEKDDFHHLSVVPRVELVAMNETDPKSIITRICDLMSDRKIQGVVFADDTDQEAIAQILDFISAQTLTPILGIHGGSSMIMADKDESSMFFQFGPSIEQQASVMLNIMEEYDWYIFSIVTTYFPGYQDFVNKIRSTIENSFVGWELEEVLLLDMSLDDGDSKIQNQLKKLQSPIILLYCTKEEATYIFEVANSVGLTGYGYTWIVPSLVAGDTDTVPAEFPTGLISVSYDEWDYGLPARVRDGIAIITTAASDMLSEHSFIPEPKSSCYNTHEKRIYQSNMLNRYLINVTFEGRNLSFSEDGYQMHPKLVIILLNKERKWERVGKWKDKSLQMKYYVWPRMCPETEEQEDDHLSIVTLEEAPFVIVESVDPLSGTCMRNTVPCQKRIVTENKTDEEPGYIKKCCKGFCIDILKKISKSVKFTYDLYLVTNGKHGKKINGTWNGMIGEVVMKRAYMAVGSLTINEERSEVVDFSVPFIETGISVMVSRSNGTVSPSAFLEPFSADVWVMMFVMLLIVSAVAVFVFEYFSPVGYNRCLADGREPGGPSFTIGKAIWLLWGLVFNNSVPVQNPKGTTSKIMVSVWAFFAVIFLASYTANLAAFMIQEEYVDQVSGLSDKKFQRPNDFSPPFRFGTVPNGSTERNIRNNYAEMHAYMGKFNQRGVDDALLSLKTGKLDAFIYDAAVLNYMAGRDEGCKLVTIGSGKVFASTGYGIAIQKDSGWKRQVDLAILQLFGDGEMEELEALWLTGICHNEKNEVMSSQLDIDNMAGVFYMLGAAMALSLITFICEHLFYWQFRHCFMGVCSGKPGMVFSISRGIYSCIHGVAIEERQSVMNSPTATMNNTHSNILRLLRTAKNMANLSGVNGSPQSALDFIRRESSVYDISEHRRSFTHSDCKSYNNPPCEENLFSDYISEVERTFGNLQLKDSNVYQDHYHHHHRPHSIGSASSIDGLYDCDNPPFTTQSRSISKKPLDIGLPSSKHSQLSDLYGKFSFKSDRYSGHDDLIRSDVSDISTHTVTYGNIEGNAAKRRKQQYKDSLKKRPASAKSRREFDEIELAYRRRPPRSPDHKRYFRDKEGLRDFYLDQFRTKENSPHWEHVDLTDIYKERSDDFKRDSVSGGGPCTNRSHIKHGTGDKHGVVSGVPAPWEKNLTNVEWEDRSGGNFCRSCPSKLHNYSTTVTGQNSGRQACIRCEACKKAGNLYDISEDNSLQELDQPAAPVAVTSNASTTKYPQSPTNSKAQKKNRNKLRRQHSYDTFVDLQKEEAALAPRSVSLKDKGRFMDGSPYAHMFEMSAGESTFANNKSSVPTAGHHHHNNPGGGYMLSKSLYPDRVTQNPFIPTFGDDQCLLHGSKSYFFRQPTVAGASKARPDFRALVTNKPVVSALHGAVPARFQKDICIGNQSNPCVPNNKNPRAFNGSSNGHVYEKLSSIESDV
Chain of AChE from Electrophorus electricus (electric eel) (O42275 24-633): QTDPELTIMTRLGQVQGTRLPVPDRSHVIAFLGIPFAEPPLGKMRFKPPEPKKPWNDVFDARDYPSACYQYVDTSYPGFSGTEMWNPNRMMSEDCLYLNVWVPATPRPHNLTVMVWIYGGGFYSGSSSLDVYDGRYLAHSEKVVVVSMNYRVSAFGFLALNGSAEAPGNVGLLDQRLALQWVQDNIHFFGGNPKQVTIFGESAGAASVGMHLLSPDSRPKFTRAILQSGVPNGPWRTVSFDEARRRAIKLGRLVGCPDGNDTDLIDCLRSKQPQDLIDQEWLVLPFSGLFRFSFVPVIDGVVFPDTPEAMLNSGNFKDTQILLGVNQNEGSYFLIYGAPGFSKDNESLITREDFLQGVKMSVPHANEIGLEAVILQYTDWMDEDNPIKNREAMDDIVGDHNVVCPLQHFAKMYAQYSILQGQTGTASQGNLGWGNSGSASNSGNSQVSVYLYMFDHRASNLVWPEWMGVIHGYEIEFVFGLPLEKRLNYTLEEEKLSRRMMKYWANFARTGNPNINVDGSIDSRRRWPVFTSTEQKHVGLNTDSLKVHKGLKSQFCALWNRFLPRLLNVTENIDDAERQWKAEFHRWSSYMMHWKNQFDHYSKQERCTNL

Row | Structure (SMILES) | IC50 (BChE from equine serum) [nM] | IC50 [1] [nM] | IC50 [2] [nM] | cytotoxicity on HepG2 cells, in words (HepG2 cells) | antagonism of NMDAR activity, in words [2] | IC50 values (mean ± SD) BChE (BChE from equine serum) | inhibition at 100 µM [2] [%] | other results
1 | CCOC(=O)C1CCc2nc3cc(Br)ccc3c(N)c2C1 (stereo not shown) [Compound 5, Ethyl 9-amino-6-bromo-1,2,3,4-tetrahydroacridine-2-carboxylate] | 7380 ± 210 | 100 ± 7.2 |  |  |  |  |  | 
2 | NNC(=O)C1CCc2nc3cc(Br)ccc3c(N)c2C1 (stereo not shown) [Compound 8, 9-Amino-6-bromo-1,2,3,4-tetrahydroacridine-2-carbohydrazide] | 20400 ± 2110 | 138 ± 16.1 |  |  |  |  |  | 
3 | CCOC(=O)C1CCc2nc3cc(-c4cnn(C)c4)ccc3c(N)c2C1 (stereo not shown) [Compound 10, Ethyl-9-amino-6-(1-methyl-1H-pyrazol-4-yl)-1,2,3,4-tetrahydroacridine-2-carboxylate] | 4390 ± 280 | 107 ± 8.7 | 31100 ± 4800 |  |  |  |  | 
4 | CNC(=O)C1CCc2nc3cc(-c4cnn(C)c4)ccc3c(N)c2C1 (stereo not shown) [Compound 14, 9-amino-N-methyl-6-(1-methyl-1H-pyrazol-4-yl)-1,2,3,4-tetrahydroacridine-2-carboxamide] | 16400 ± 540 | 132 ± 7.7 | 33900 ± 8410 | non-toxic |  |  |  | condensed nuclei / viable cells (DAPI staining) after glutamate [3]: clear decrease in the number of condensed nuclei; decrease in MAP2 positive cells and loss of neuronal architecture caused by glutamate [3]: prevented; category of NMDAR inhibitor [2]: reduced
5 | CCOC(=O)C1CCc2nc3ccccc3c(N)c2C1 (stereo not shown) [Compound 16, ethyl 9-amino-1,2,3,4-tetrahydroacridine-2-carboxylate] | 3820 ± 250 | 42.2 ± 2.7 |  |  | could not effectively block NMDAR activity |  |  | 
6 | NNC(=O)C1CCc2nc3ccccc3c(N)c2C1 (stereo not shown) [Compound 17, 9-amino-1,2,3,4-tetrahydroacridine-2-carbohydrazide] |  | 19.3 ± 0.47 |  |  | could not effectively block NMDAR activity |  |  | 
7 | CCOC(=O)C1CCc2nc3cc(-c4ccc(F)cc4)ccc3c(N)c2C1 (stereo not shown) [Compound 107, ethyl 9-amino-6-(4-fluorophenyl)-1,2,3,4-tetrahydroacridine-2-carboxylate] | 1350 ± 90 | 135 ± 10.3 | 15800 ± 3440 |  |  |  |  | 
8 | Cn1cc(-c2ccc3c(N)c4c(nc3c2)CCCC4)cn1 [Compound 201, 6-(1-methyl-1H-pyrazol-4-yl)-1,2,3,4-tetrahydroacridin-9-amine] | 850 ± 10 | 40.9 ± 4.82 | 15200 ± 6140 | non-toxic | effective in antagonizing NMDAR activity | submicromolar | ~100 | condensed nuclei / viable cells (DAPI staining) after glutamate [3]: clear decrease in the number of condensed nuclei; decrease in MAP2 positive cells and loss of neuronal architecture caused by glutamate [3]: prevented; reduction in neuronal viability by glutamate (MTT assay) [4]: averted; liver histopathology (H&E), in words (rat liver): did not show any change in the liver architecture; category of NMDAR inhibitor [2]: moderate (moderate (IC50 < 20 μM)); escape latency in MWM, 5 days [5]: significantly reduced the escape latency
9 | Nc1c2c(nc3cc(-c4cncnc4)ccc13)CCCC2 [Compound 203, 6-(pyrimidin-5-yl)-1,2,3,4-tetrahydroacridin-9-amine] | 1500 ± 200 | 18.5 ± 2.09 | 28100 ± 5100 | slight toxicity | effective in antagonizing NMDAR activity |  |  | 
10 | Nc1c2c(nc3cc(-c4cc[nH]n4)ccc13)CCCC2 [Compound 204, 6-(1H-pyrazol-3-yl)-1,2,3,4-tetrahydroacridin-9-amine] | 960 ± 70 | 137 ± 7.35 | 14600 ± 4320 | non-toxic | effective in antagonizing NMDAR activity | submicromolar | ~100 | 
11 | N#Cc1ccc(-c2ccc3c(N)c4c(nc3c2)CCCC4)cc1 [Compound 205, 4-(9-amino-5,6,7,8-tetrahydroacridin-3-yl)benzonitrile] | 700 ± 80 | 84.2 ± 1.8 | 2840 ± 460 | slight toxicity | effective in antagonizing NMDAR activity | submicromolar | ~100 | 
12 | Nc1c2c(nc3cc(-c4ccc(OC(F)(F)F)cc4)ccc13)CCCC2 [Compound 206, 6-(4-(trifluoromethoxy)phenyl)-1,2,3,4-tetrahydroacridin-9-amine] | 1210 ± 160 | 184 ± 19.2 | 9190 ± 2680 |  | effective in antagonizing NMDAR activity |  | ~100 | 
13 | Nc1c2c(nc3cc(-c4ccccc4F)ccc13)CCCC2 [Compound 208, 6-(2-fluorophenyl)-1,2,3,4-tetrahydroacridin-9-amine] | 130 ± 20 | 75.1 ± 9.46 | 310 ± 90 |  | effective in antagonizing NMDAR activity | submicromolar | ~100 | condensed nuclei / viable cells (DAPI staining) after glutamate [3]: clear decrease in the number of condensed nuclei; decrease in MAP2 positive cells and loss of neuronal architecture caused by glutamate [3]: prevented; reduction in neuronal viability by glutamate (MTT assay) [4]: averted; animals showing mild periportal inflammation or congestion (rat liver): 5 out of 6 animals; liver histopathology (H&E), in words (rat liver): mild periportal inflammation or mild congestion; fold higher NMDAR inhibitory potency compared to reported value for tacrine [2]: ~600 fold; number of punctate cells [2]: Reduction in the number of punctate cells; inhibition at 50 µM [2]: ~100%; category of NMDAR inhibitor [2]: potent (potent (IC50 < 5 μM)); selectivity between AChE and BChE, in words ([1]; AChE from electric eel vs BChE from equine serum): comparable inhibitory potency towards both AChE and BChE
14 | Nc1c2c(nc3cc(-c4ccc(F)cc4)ccc13)CCCC2 [Compound 209, 6-(4-fluorophenyl)-1,2,3,4-tetrahydroacridin-9-amine] | 1030 ± 170 | 76 ± 3.79 | 3360 ± 860 | non-toxic | effective in antagonizing NMDAR activity |  | ~100 | fold increase in NMDAR potency compared to 107 [2]: About 4 fold; inhibition at 50 µM [2]: ~100%
15 | CSc1ccc(-c2ccc3c(N)c4c(nc3c2)CCCC4)cc1 [Compound 210, 6-(4-(methylthio)phenyl)-1,2,3,4-tetrahydroacridin-9-amine] | 940 ± 120 | 149 ± 16.8 | 270 ± 50 |  | effective in antagonizing NMDAR activity | submicromolar | ~100 | condensed nuclei / viable cells (DAPI staining) after glutamate [3]: clear decrease in the number of condensed nuclei; decrease in MAP2 positive cells and loss of neuronal architecture caused by glutamate [3]: prevented; reduction in neuronal viability by glutamate (MTT assay) [4]: averted; fold higher NMDAR inhibitory potency compared to reported value for tacrine [2]: ~600 fold; inhibition at 50 µM [2]: ~100%; category of NMDAR inhibitor [2]: potent (potent (IC50 < 5 μM))
16 | Nc1c2c(nc3cc(-c4ccc(C(F)(F)F)cc4)ccc13)CCCC2 [Compound 211, 6-(4-(trifluoromethyl)phenyl)-1,2,3,4-tetrahydroacridin-9-amine] | 3970 ± 710 | 74.6 ± 8.29 | 490 ± 140 | slight toxicity | effective in antagonizing NMDAR activity |  | ~100 | condensed nuclei / viable cells (DAPI staining) after glutamate [3]: clear decrease in the number of condensed nuclei; decrease in MAP2 positive cells and loss of neuronal architecture caused by glutamate [3]: prevented; number of punctate cells [2]: Reduction in the number of punctate cells; inhibition at 50 µM [2]: ~100%; category of NMDAR inhibitor [2]: potent (potent (IC50 < 5 μM))
17 | Nc1c2c(nc3cc(-c4ccoc4)ccc13)CCCC2 [Compound 212, 6-(furan-3-yl)-1,2,3,4-tetrahydroacridin-9-amine] | 990 ± 50 | 53.6 ± 4.39 | 16400 ± 2760 | non-toxic | effective in antagonizing NMDAR activity | submicromolar |  | 
18 | Nc1c2c(nc3cc(-c4cccnc4)ccc13)CCCC2 [Compound 214, 6-(pyridin-3-yl)-1,2,3,4-tetrahydroacridin-9-amine] | 820 ± 90 | 49.4 ± 2.37 | 38800 ± 9640 | non-toxic | effective in antagonizing NMDAR activity | submicromolar |  | 
19 | C[C@]12N[C@H](Cc3ccccc31)c1ccccc12 [MK-801, reference compound] |  |  |  |  |  |  |  | condensed nuclei / viable cells (DAPI staining) after glutamate [3]: prevented
22 | Nc1c2c(nc3ccccc13)CCCC2 [tacrine, reference compound] |  |  |  |  |  |  |  | concentration up to which safe on HepG2 cells (HepG2 cells): up to 50 µM; reduction in cell viability (HepG2 cells; HepG2, 300 µM): ~50%; IC50 (NMDAR): 193000 ± 33000 nM

Reference: publication PMC8379669 (Computational and Structural Biotechnology Journal, 2021)
